Data from US20230346769A1, “USE OF SIMPLE ACYCLIC POLYAMINES FOR THE TREATMENT OF DISEASES CAUSED BY PARASITES OF THE GENUS LEISHMANIA” (Universidad De Granada, priority 2020, published 2023).
“Also recorded” adds a separate entry of the source.

Key:
[1] = tested on: FeSOD of promastigote forms of L.donovani; assay: In vitro inhibition of FeSOD (NBT reduction); type: biochemical, Leishmania donovani
Description: (§1) Methodology: Compounds that were selected from the leishmanicidal activity shown in previous experiments were evaluated as inhibitors of FeSOD enzyme activity, which is unique to the kinetoplastid parasites to which Leishmania belongs. Being exclusive, it is absent in the vertebrate host, since these usually have an analogous form of that enzyme, but complexed to a copper or zinc atom (Cu/ZnSOD). For this reason, this enzyme is a therapeutic target for the design of new drugs, since the capture of the metal ion by complexing mechanisms can inactivate the enzyme and compromise the survival of the parasite with the appearance of free radicals.
(§2) Inhibition caused by the novel compounds on FeSOD/ Cu-Zn SOD activity was quantified on the spectrophotometer at 560 nm according to the technique described by [W F. Beyer. I. Fridovich. Anal Biochem. 1987. […]
(§3) Briefly, the cultured parasites as described in Example 1 underwent centrifugation, the pellet was resuspended (0.5 - 0.6 g/ml) in 3 ml of STE buffer (0.25 M. Tris-HCI 25 mM sucrose. 1 M EDTA. pH 7.8) and underwent 3 cycles of sonication from 30 s at 60 V. Then, it was centrifuged at 1500 g for 10 min at 4° C. and the pellet was washed 3 times with ice-cooled STE buffer. […] Protein concentrations were determined by means of the Bradford method (Sigma-Aldrich) using bovine serum albumin as standard. […]

[2] = tested on: L.braziliensis promastigotes; assay: Alteration of production and excretion of metabolites (1H NMR); type: cell-based, Leishmania braziliensis; conditions: compound at IC25, 72 h; for Succinate production: versus control
Description: (§4) Methodology: Promastigotes from the three species studied were used for this study. They were left to grow in a culture flask and subsequently transferred to a 25 ml capacity conical bottom flask (steriling) so that there were 5×10^4 parasites/ml in each one. The amount of compound needed to reach IC25 of each product was added and completed with fresh culture medium to reach a final volume of 3 ml and incubated at 28° C. for 72 h. After that time, the flasks were centrifuged at 400 g for 10 minutes, and 2 ml of supernatant was transferred to Eppendorf® tubes. Next, they were analysed using proton nuclear resonance and the spectra were analysed with the Mestre Nova® software to obtain the metabolite production and excretion graphs. From these graphs, it can be inferred which enzyme has seen its activity altered by action of the compounds, depending on the increase or decrease of the metabolite produced by it.
(§5) Both the decrease and increase in the metabolites analysed can be positive effects, indicating a malfunctioning of the metabolic pathway.

[3] = tested on: FeSOD of the promastigote forms of L.braziliensis; assay: In vitro inhibition of FeSOD (NBT reduction); type: biochemical, Leishmania braziliensis
Description: as §1, §2, §3

[4] = tested on: FeSOD of promastigote forms of L.infantum; assay: In vitro inhibition of FeSOD (NBT reduction); type: biochemical, Leishmania infantum
Description: as §1
(§6) Inhibition caused by the novel compounds on FeSOD/ Cu-Zn SOD activity was quantified on the spectrophotometer at 560 nm according to the technique described by [W F. Beyer. I. Fridovich. Anal Biochem. 1987. 161: 559-66] based on the determination of the reduction of NBT (nitro blue tetrazolium) by superoxide ions and which the group of the present inventors has developed for the assay in trypanosomatides, being a routine technique in the laboratory of said group [F. Luque. et. al. Comp. Biochem. Physiol. C Toxicol. Pharmacol. 2000. 126: 39-44; M. Sanchez-Moreno. Med. Chem. 2011. 54. 970-9; I. Ramírez-Macías. et. al. J. Antimicrob. Chemother 2011. 66(4): 913-9].
(§7) Briefly, the cultured parasites as described in Example 1 underwent centrifugation, the pellet was resuspended (0.5 - 0.6 g/ml) in 3 ml of STE buffer ([…]. pH 7.8) and underwent 3 cycles of sonication from 30 s at 60 V. Then, it was centrifuged at 1500 g for 10 min at 4° C. and the pellet was washed 3 times with ice-cooled STE buffer. This fraction was centrifuged (2500 g for 10 min at 4° C.) and the supernatant was subsequently collected. Protein concentrations were determined by means of the Bradford method (Sigma-Aldrich) using bovine serum albumin as standard. […] A first measurement of the absorbance at 560 nm was made on a spectrophotometer and, after 10 minutes under light and under stirring conditions, the absorbance was re-determined. […]

L.donovani promastigotes = assay: Alteration of production and excretion of metabolites (1H NMR); type: cell-based, Leishmania donovani; conditions: compound at IC25, 72 h
Description: as §4, §5

Leishmania donovani = assay: Mitochondrial membrane potential by rhodamine staining and flow cytometry; type: cell-based; conditions: L.donovani, compound at IC25, 72 h
Description: Methodology: Similar to the assay of Example 5, an amount of 5×10^4 parasites/ml of Leishmania donovani was re-treated with the IC25 of compounds 2 and 4, this time in a final volume in the 5 ml steriling conical bottom flasks. Again, after 72 h of incubation under the same conditions as described in Example 5, the flasks were centrifuged at 400 g for 10 minutes and the pellet was washed by resuspending with PBS three times. The pellet was resuspended with 0.5 mL of PBS with 10 µg/mL rhodamine after the last wash. A cytometry analysis was performed after 20 minutes of action of the rhodamine.

[5] = tested on: intracellular forms of L.braziliensis in J774.2 macrophages; assay: Infection rate and parasite growth in infected macrophage cultures; type: cell-based, Leishmania braziliensis; conditions: compound at IC25, 10 days
Description: (§8) Methodology: Macrophages of the J774.2 line preserved in the laboratory of the present inventors by cryopreservation at -80° C. and successive runs in MEM+Glutamine + 20% SBFI medium were used, which were deposited in a […] tube and centrifuged at 100 g for 5 minutes. The supernatant was discarded and the cells were resuspended in medium corresponding to a final concentration of 1×10^6 cells/ml. Subsequently, 10 μl of the cell suspension was deposited into each well of a 24-well culture plate each with a 10 mm diameter round slide. A final volume of 500 μl was completed with the culture medium and incubated for 24 h at 37° C. in humid atmosphere with 5% CO2. […] The non-phagocytic parasites and products were removed by washing and the infected cultures were maintained for 10 days in fresh medium added every 48 hours. The activity of the compounds was determined by the percentage of infected cells and the number of amastigotes per infected cell. Finally, the cultures were fixed and stained with methanol and Giemsa.

[6] = tested on: intracellular forms of L.donovani in J774.2 macrophages; assay: as above; type: cell-based, Leishmania donovani; conditions: compound at IC25, 10 days
Description: as §8

[7] = target: T1, CuZnSOD of human erythrocytes (Homo sapiens, UniProt P00441); assay: In vitro inhibition of CuZnSOD (NBT reduction); type: biochemical
T1 construct: the Cu/Zn-superoxide dismutase of human red blood cells from Boehringer Mannheim was used; purchased Boehringer Mannheim; host or cells: human red blood cells (erythrocytes)
T1 sequence (P00441 whole entry): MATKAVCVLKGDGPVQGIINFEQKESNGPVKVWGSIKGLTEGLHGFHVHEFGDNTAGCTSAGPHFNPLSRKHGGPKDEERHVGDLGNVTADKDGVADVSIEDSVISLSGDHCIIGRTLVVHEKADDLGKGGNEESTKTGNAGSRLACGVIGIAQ
From the text: To conduct this assay, the Cu/Zn-superoxide dismutase of human red blood cells from Boehringer Mannheim was used, whilst the coenzymes and substrates were obtained from Sigma-Aldrich.
as §6, with “126: 39-44; M. Sanchez-Moreno. Med. Chem. 2011. 54. 970-9; I. Ramírez-Macías. et. al. J. Antimicrob. Chemother 2011. 66(4): 913-9].” left out
as §7, with “This fraction was centrifuged (2500 g for 10 min at 4° C.) and the supernatant was subsequently collected.” left out

L.infantum promastigotes = assay: Alteration of production and excretion of metabolites (1H NMR); type: cell-based, Leishmania infantum; conditions: compound at IC25, 72 h, versus control
Description: as §4, §5

| SMILES | Concentration for 50% inhibition (IC50) of FeSOD of L.donovani [1] | Production and excretion of metabolites (metabolism, other metabolites analysed) [2] | Succinate production [2] | Concentration for 50% inhibition (IC50) of FeSOD of L.braziliensis [3] | Concentration for 50% inhibition (IC50) of FeSOD of L.infantum [4] | Production and excretion of metabolites (metabolism, other metabolites analysed) (L.donovani promastigotes) | Succinate production (L.donovani promastigotes; versus control) | Effect on mitochondrial membrane potential (Leishmania donovani) | Number of amastigotes per infected cell [5] | Percentage of infection (infection rate) [5] | Number of amastigotes per infected cell [6] | Percentage of infection (infection rate) [6] | Concentration for 50% inhibition (IC50) of CuZnSOD of human erythrocytes [7] | Succinate production (L.infantum promastigotes) |
| --- | --- | --- | --- | --- | --- | --- | --- | --- | --- | --- | --- | --- | --- | --- |
| CNCCNCc1cccnc1 [Compound 2, 1-{3-pyridyl)-2,5-diazahexane] | lower than that necessary for the enzyme of human erythrocytes; also recorded: showed ability to inhibit FeSOD; also recorded: low IC50 value | practically does not alter the other metabolites analysed | a certain increase of succinate | showed ability to inhibit FeSOD | less than that necessary to achieve the same percentage of inhibition of the CuZnSOD enzyme of human erythrocytes; also recorded: showed ability to inhibit FeSOD; also recorded: low IC50 value | all the metabolites analysed increase | increase in succinate production | only a slight depolarisation | lowest values over time; also recorded: effective by decreasing | lowest values over time; also recorded: effective by decreasing | lowest values over time; also recorded: effective by decreasing | lowest values over time; also recorded: effective by decreasing | – | – |
| CN(C)CCNCc1ccccn1 [Compound 4, 1-(2-pyridyl)-5-methyl-2,5-diazahexane] | lower than that necessary for the enzyme of human erythrocytes; also recorded: showed ability to inhibit FeSOD | decrease of the remaining metabolites analysed | increase in succinate production | lower than that necessary for the enzyme of human erythrocytes; also recorded: showed ability to inhibit FeSOD | less than that necessary to achieve the same percentage of inhibition of the CuZnSOD enzyme of human erythrocytes; also recorded: showed ability to inhibit FeSOD | – | – | only a slight depolarisation | effective by decreasing | effective by decreasing | effective by decreasing | effective by decreasing | high IC50 value | increase in succinate production |
| CN(C)CCNCc1cccnc1 [Compound 5, 1-{3-pyridyl}-5-methyl-2,5-diazahexane] | – | – | – | – | less than that necessary to achieve the same percentage of inhibition of the CuZnSOD enzyme of human erythrocytes; also recorded: showed ability to inhibit FeSOD | – | – | – | – | – | – | – | – | – |
